Patent US20230286973A1, “PROTEIN SECRETION INHIBITORS” (KEZAR LIFE SCIENCES, priority 2020, published 2023)
Read-outs that look alike come from different tables or passages of the source.

Columns and labels:
[1] = test system: multiple myeloma cell line U266B1; test: U266 Cell Viability Assay; type: cell-based, human; conditions: Homo sapiens, U-266, 48 h, U266B1 cells, Celltiter-Glo
How it was run: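 CellTiter-Glo luminescence was read after a 48 h compound exposure (37 °C, 5% CO2) of human U266B1 myeloma cells grown in 10% FBS-supplemented RPMI 1640. Data for structures shown without defined stereochemistry refer to stereoisomer mixtures.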

[2] = test system: IL-2-FL/Gaussia Luciferase; test: Dox Induced IL2-FL-Gluc Assay; type: cell-based; conditions: for IC50: 24 hr Dox induction, 293FRT/TO cells, read-out: 24 hr Dox Inducible IL2FLGluc 293FRT/TO: Mean IC50; for 24 hr Dox Inducible IL2FLGluc 293FRT/TO: IL2/PD1: ratio of IL2FLGluc IC50 to PD1ssGluc IC50
How it was run: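 Compounds in DMSO/medium with doxycycline were applied to a 293 T-REx stable line expressing an IL-2 (aa 1-153)–Gaussia luciferase fusion under tetracycline-regulated control, cells seeded one day earlier; incubation at 37 °C, 5% CO2. Structures drawn without stereochemistry were tested as stereoisomer mixtures.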

[3] = test system: multiple myeloma cell line NCI-H929; test: H929 Cell Viability Assay; type: cell-based, human; conditions: Homo sapiens, NCI-H929, 48 h, NCI-H929 cells, Celltiter-Glo
How it was run: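 Luminescent CellTiter-Glo read-out of viability after a 48 h exposure (37° C, 5% CO2) of NCI-H929 myeloma cells to compound dilutions in RPMI 1640 plus 10% FBS. Data for structures drawn without stereochemistry refer to stereoisomer mixtures.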

[4] = Liver Microsome Stability Assay (mouse); conditions: mouse liver microsomes, with NADPH, 1.0 uM compound
Description: (§1) Stability of a compound was assessed in the presence of liver microsomes from various sources—mouse, rat, monkey and human liver microsomes. 1.0 uM compound, 0.4% DMSO in 0.1 M Potassium Phosphate with 1.0 mg/mL liver microsomes, were incubated at 37° C. with or without 1 mM NADPH. The samples were quenched at 0, and 30 minutes.

[5] = Liver Microsome Stability Assay (rat); conditions: rat liver microsomes, with NADPH, 1.0 uM compound
Description: as §1

[6] = Liver Microsome Stability Assay (monkey); conditions: monkey liver microsomes, with NADPH, 1.0 uM compound
Description: as §1

[7] = test system: HER3-ss+4aa/Gaussia Luciferase; test: Dox-Induced Her3-ss-Gluc Assay; type: cell-based; conditions: 24 hr Dox induction, 293FRT/TO cells, read-out: 24 hr Dox Inducible Her3(ss + 4)Gluc 293FRT/TO: Mean IC50
How it was run: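 Compounds were diluted in DMSO/media containing doxycycline. They were added to Flp-In 293 T-REx cells plated the previous day, then incubated at 37 °C under 5% CO2. These cells stably express, under T-REx control, Gaussia luciferase fused to the HER3 signal sequence plus 4 amino acids.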

[8] = test system: PD1-ss+10aa/Gaussia Luciferase; test: Dox-Induced PD1-ss-Gluc Assay; type: cell-based; conditions: 24 hr Dox induction, 293FRT/TO cells, read-out: 24 hr Dox Inducible PD1ssGluc 293FRT/TO: Mean IC50
How it was run: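 Stable Flp-In 293 T-REx cells carried a doxycycline-inducible construct of Gaussia luciferase fused to the PD1 signal sequence plus 10 amino acids. Cells were plated the day before, then treated with compound dilutions in DMSO/media containing doxycycline at 37 °C, 5% CO2.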

[9] = test system: TNFα-FL/Gaussia Luciferase; test: Dox Induced TNFα-FL-Gluc Assay; type: cell-based; conditions: for IC50: 24 hr Dox induction, 293FRT/TO cells, read-out: 24 hr Dox Inducible TNFaFLGluc 293FRT/TO: Mean IC50; for 24 hr Dox Inducible TNFaFLGluc 293FRT/TO: TNF/PD1: ratio of TNFaFLGluc IC50 to PD1ssGluc IC50
How it was run: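 Compound was added with doxycycline to cells plated a day earlier, incubating at 37° C under 5% CO2. The reporter line is 293 T-REx expressing a TNFα (1-233)–Gaussia luciferase fusion under tetracycline-regulated control.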

[10] = Liver Microsome Stability Assay (human); conditions: human liver microsomes, with NADPH, 1.0 uM compound
Description: as §1

[11] = '<=>' given where both are I.A.

O=C(Nc1nc([C@H]2CCCN2c2ccc(OC3CS(=O)(=O)C3)cc2)cs1)c1cccn1Cc1ccnc(F)c1 [Compound A158]
EC50 [1]: > 25000 nM | IC50 [2]: 130 nM | 24 hr Dox Inducible IL2FLGluc 293FRT/TO: IL2/PD1 [2]: 1.4 | EC50 [3]: 3320 nM | Liver Microsome Stability (Multiple Species): Mouse - % Remaining after 30 min w/NADPH [4]: 14.5% | Liver Microsome Stability (Multiple Species): Rat - % Remaining after 30 min w/NADPH [5]: 24.2% | Liver Microsome Stability (Multiple Species): Monkey - % Remaining after 30 min w/NADPH [6]: 1.84% | IC50 [7]: 128 nM | IC50 [8]: 90.5 nM | IC50 [9]: 1060 nM | 24 hr Dox Inducible TNFaFLGluc 293FRT/TO: TNF/PD1 [9]: 11.7 | Liver Microsome Stability (Multiple Species): Human - % Remaining after 30 min w/NADPH [10]: 8.23%

CC(C)n1cc(/C=C/c2csc(NC(=O)c3cccn3Cc3ccnc(F)c3)n2)nc1C#N [Compound B93, (E)-N-(4-(2-(2-cyano-1-isopropyl-1H-imidazol-4-yl)vinyl)thiazol-2-yl)-1-((2-fluoropyridin-4-yl)methyl)-1H-pyrrole-2-carboxamide]
EC50 [1]: > 25000 nM | IC50 [2]: 11000 nM | 24 hr Dox Inducible IL2FLGluc 293FRT/TO: IL2/PD1 [2]: 16 | EC50 [3]: 20900 nM | Liver Microsome Stability (Multiple Species): Mouse - % Remaining after 30 min w/NADPH [4]: 12.7% | Liver Microsome Stability (Multiple Species): Rat - % Remaining after 30 min w/NADPH [5]: 11.5% | Liver Microsome Stability (Multiple Species): Monkey - % Remaining after 30 min w/NADPH [6]: 0.03% | IC50 [7]: 2730 nM | IC50 [8]: 686 nM | IC50 [9]: > 25000 nM | 24 hr Dox Inducible TNFaFLGluc 293FRT/TO: TNF/PD1 [9]: >36.4 | Liver Microsome Stability (Multiple Species): Human - % Remaining after 30 min w/NADPH [10]: 0.85%

O=C(Nc1nc([C@H]2CCCN2c2ccccc2)cs1)c1cccn1CCCCc1nnn[nH]1 [Compound C4, (R)-1-(4-(1H-tetrazol-5-yl)butyl)-N-(4-(1-phenylpyrrolidin-2-yl)thiazol-2-yl)-1H-pyrrole-2-carboxamide]
EC50 [1]: > 25000 nM | IC50 ([2]; mean): 1940 nM | 24 hr Dox Inducible IL2FLGluc 293FRT/TO: IL2/PD1 [2, 11]: 2.5 | EC50 [3]: > 25000 nM | Liver Microsome Stability (Multiple Species): Mouse - % Remaining after 30 min w/NADPH [4]: 49.1% | Liver Microsome Stability (Multiple Species): Rat - % Remaining after 30 min w/NADPH [5]: 62.1% | Liver Microsome Stability (Multiple Species): Monkey - % Remaining after 30 min w/NADPH [6]: 70.3% | IC50 ([7]; mean): 1540 nM | IC50 ([8]; mean): 782 nM | IC50 ([9]; mean): 16500 nM | 24 hr Dox Inducible TNFaFLGluc 293FRT/TO: TNF/PD1 [9, 11]: 21.1 | Liver Microsome Stability (Multiple Species): Human - % Remaining after 30 min w/NADPH [10]: 96.7%

O=C(Nc1nc([C@H]2CCCN2c2ccccc2)cs1)c1cccn1CCCC1COC1 [Compound C116, (R)-1-(3-(oxetan-3-yl)propyl)-N-(4-(1-phenylpyrrolidin-2-yl)thiazol-2-yl)-1H-pyrrole-2-carboxamide]
EC50 [1]: > 25000 nM | IC50 ([2]; mean): 1590 nM | 24 hr Dox Inducible IL2FLGluc 293FRT/TO: IL2/PD1 [2, 11]: 1.5 | EC50 [3]: > 25000 nM | Liver Microsome Stability (Multiple Species): Mouse - % Remaining after 30 min w/NADPH [4]: 5.51% | Liver Microsome Stability (Multiple Species): Rat - % Remaining after 30 min w/NADPH [5]: 6.02% | Liver Microsome Stability (Multiple Species): Monkey - % Remaining after 30 min w/NADPH [6]: 6.55% | IC50 ([7]; mean): 1060 nM | IC50 ([8]; mean): 1030 nM | IC50 ([9]; mean): 7540 nM | 24 hr Dox Inducible TNFaFLGluc 293FRT/TO: TNF/PD1 [9, 11]: 7.3 | Liver Microsome Stability (Multiple Species): Human - % Remaining after 30 min w/NADPH [10]: 24.8%

O=C(Nc1nc(/C=C/c2coc(C3CCCCC3)n2)cs1)c1cccn1Cc1ccncc1 [Compound B39, (E)-N-(4-(2-(2-cyclohexyloxazol-4-yl)vinyl)thiazol-2-yl)-1-(pyridin-4-ylmethyl)-1H-pyrrole-2-carboxamide]
EC50 [1]: 13100 nM | IC50 [2]: 1960 nM | 24 hr Dox Inducible IL2FLGluc 293FRT/TO: IL2/PD1 [2]: 7.3 | EC50 [3]: 10200 nM | Liver Microsome Stability (Multiple Species): Mouse - % Remaining after 30 min w/NADPH [4]: 16.5% | Liver Microsome Stability (Multiple Species): Rat - % Remaining after 30 min w/NADPH [5]: 5.38% | Liver Microsome Stability (Multiple Species): Monkey - % Remaining after 30 min w/NADPH [6]: 0.47% | IC50 [7]: 945 nM | IC50 [8]: 268 nM | IC50 [9]: 6460 nM | 24 hr Dox Inducible TNFaFLGluc 293FRT/TO: TNF/PD1 [9]: 24.1 | Liver Microsome Stability (Multiple Species): Human - % Remaining after 30 min w/NADPH [10]: 0.27%
